# Literature values, collected in patent US20090258907A1, “COMPOUNDS USEFUL AS INHIBITORS OF ROCK KINASES” (ABBOTT LABORATORIES, priority 2008, published 2009).
# How the values were obtained:
# [1] = tested on: vascular smooth muscle cell (VSMC); settings: vein grafts, weeks following the procedure
# [2] = OLETF rats, high dose
# [3] = Zucker obese rats, 4 weeks
# [4] = experimental myocardial infarction (MI); rat chronic hypertension induced congestive heart failure
# [5] = CNS ischemic conditions
# [6] = mouse, in vivo
compound,measurement,setting,value
O=S(=O)(c1cccc2cnccc12)N1CCCNCC1 [fasudil],VSMC apoptosis,[1],enhanced
same,intimal thickening and VSMC proliferation,[1],significantly suppressed
same,"development of diabetes, obesity, dyslipidemia; serum adiponectin",[2],"completely suppressed the development of diabetes, obesity, and dyslipidemia and increased serum adiponectin levels"
same,"blood pressure, glucose and lipid metabolism, insulin signalling, endothelial dysfunction",[3],"reduced blood pressure, corrected glucose and lipid metabolism, improved insulin signalling and endothelial dysfunction"
same,"effect on ischemia-reperfusion injury, myocardial infarct size and myocardial fibrosis",[4],"decrease ischemia-reperfusion injury, myocardial infarct size, and myocardial fibrosis"
same,cerebral blood flow and neuroprotection,[5],increased cerebral blood flow and was neuroprotective
same,efficacy in animal models of epileptogenesis,[6],efficacy
